Test: xn = mol fraction of the nth substance listed
Settings: 100 kPa

CN1CCCC1=O + CCCC[n+]1ccn(C)c1.F[B-](F)(F)F
x1 = 1
Settings | speed of sound [m/s]
298.15 K | 1543.8
303.15 K | 1524.3
308.15 K | 1505
313.15 K | 1485.7
318.15 K | 1466.7

CCCC[n+]1ccn(C)c1.F[B-](F)(F)F + CN1CCCC1=O
speed of sound [m/s]
Settings | x2 = 0.108 | x2 = 0.2114 | x2 = 0.3061 | x2 = 0.4422 | x2 = 0.5097 | x2 = 0.6155 | x2 = 0.7054 | x2 = 0.8025 | x2 = 0.9025
298.15 K | – | – | – | 1562.8 | 1562 | 1561.2 | – | 1559.1 | 1554.8
303.15 K | 1552.4 | 1552.2 | 1551.5 | 1549.9 | 1548.1 | – | 1544.1 | – | 1536.3
308.15 K | – | 1539.8 | – | 1536.6 | 1534.6 | 1531.5 | – | 1524.7 | 1518
313.15 K | 1528.3 | – | – | 1522.7 | 1520.8 | – | – | 1507 | –
318.15 K | 1516.4 | – | 1512.8 | 1510.1 | 1506.8 | 1501.7 | 1496.4 | 1490.4 | 1482.5
323.15 K | – | 1502.8 | 1499.9 | 1496.7 | 1492.4 | 1486.5 | 1480.7 | 1473.2 | 1464.1

Reference: a compilation of properties of binary mixtures (doi:10.1016/j.molliq.2015.08.019)
